From ChEMBL document CHEMBL5726188, “Triazolo[4,5-D]pyrimidines” (2019)

How the values were obtained:
[1] = biological target: Cannabinoid receptor 2 (Homo sapiens, UniProt P34972); test: (§1) cAMP Assay: CHO cells expressing human CB1 or CB2 receptors are seeded 17-24 hours prior to the experiment 50.000 cells per well in a black 96 well plate with flat clear bottom (Corning Costar #3904) in DMEM (Invitrogen No. 31331), 1×HT supplement, with 10% fetal calf serum and incubated at 5% CO2 and 37° C. in a humidified incubator. The growth medium was exchanged with Krebs Ringer Bicarbonate buffer with 1 mM IBMX and incubated at 30° C. for 30 min. Compounds were added to a final assay volume of 100 μl and incubated for 30 min at 30° C. Using the cAMP-Nano-TRF detection kit the assay (Roche Diagnostics) was stopped by the addition of 50 μl lysis reagent (Tris, NaCl, 1.5% Triton X100, 2.5% NP40, 10% NaN3) and 50 μl detection solutions (20 μM mAb Alexa700-cAMP 1:1, and 48 μM Ruthenium-2-AHA-cAMP) and shaken for 2 h at room temperature. The time-resolved energy transfer is measured by a TRF reader (Evotec Technologies GmbH), equipped with a ND:YAG laser as excitation source. The plate is measured twice with the excitation at 355 nm and at the emission with a delay of 100 ns and a gate of 100 ns, total exposure time 10 s at 730 (bandwidth 30 nm) or 645 nm (bandwidth 75 nm), respectively.
[2] = biological target: Cannabinoid receptor 1 (Homo sapiens, UniProt P21554); test: as §1
Cannabinoid receptor 1, sequence (P21554 whole entry): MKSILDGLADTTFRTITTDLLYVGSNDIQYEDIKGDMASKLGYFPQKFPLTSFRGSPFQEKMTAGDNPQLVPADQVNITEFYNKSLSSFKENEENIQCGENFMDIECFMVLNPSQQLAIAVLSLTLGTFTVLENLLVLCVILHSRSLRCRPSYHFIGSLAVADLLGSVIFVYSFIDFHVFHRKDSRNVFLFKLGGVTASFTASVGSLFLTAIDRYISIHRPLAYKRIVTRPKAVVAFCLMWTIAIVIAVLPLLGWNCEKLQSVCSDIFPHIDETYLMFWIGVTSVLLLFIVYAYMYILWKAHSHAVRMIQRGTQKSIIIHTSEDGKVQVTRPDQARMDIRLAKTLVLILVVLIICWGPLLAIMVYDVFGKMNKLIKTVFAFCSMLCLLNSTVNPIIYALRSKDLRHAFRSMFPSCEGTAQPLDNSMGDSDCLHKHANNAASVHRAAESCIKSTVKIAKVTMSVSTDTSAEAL

Cannabinoid receptor 2, sequence (P34972 whole entry): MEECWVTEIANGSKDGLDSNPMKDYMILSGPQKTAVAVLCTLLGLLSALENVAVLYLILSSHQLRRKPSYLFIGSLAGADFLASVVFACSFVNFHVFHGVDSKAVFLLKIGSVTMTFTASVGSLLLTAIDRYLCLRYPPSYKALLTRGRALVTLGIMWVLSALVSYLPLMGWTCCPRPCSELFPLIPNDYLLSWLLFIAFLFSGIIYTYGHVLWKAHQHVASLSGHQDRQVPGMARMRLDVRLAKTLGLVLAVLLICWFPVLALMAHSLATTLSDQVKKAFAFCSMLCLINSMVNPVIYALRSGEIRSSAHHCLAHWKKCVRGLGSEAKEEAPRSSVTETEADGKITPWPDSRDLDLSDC

Compound	EC50 [1]	EC50 [2]
Cn1nccc1-c1nc(C(C)(C)C)nc2c1nnn2CCC(F)(F)F	131 nM	> 10000 nM
Cc1nonc1Cn1nnc2c(-c3ccc(F)nc3)nc(C(C)(C)C)nc21	639 nM	> 10000 nM
